{"source": "patent US20230391788A1", "about": "(NAVIN SAXENA RESEARCH & TECHNOLOGY PVT. LTD., priority 2020, published 2023)", "key": {"[1]": {"conditions": "after oral dosing; cited from earlier work"}, "[2]": {"experiment": "Storage stability of naltrexone decanoate", "type": "physicochemical", "conditions": "storage condition of less than 25° C."}}, "data": [{"smiles": "Oc1ccc2c3c1O[C@H]1[C@H](O)CC[C@@]4(O)[C@@H](C2)N(CC2CC2)CC[C@]314", "note": "[6-β-naltrexol]", "values": [{"measurement": "time at which peak plasma levels occur", "setting": "[1]", "result": "one"}]}, {"smiles": "O=C1CC[C@@]2(O)[C@H]3Cc4ccc(O)c5c4[C@@]2(CCN3CC2CC2)[C@H]1O5", "note": "[naltrexone, Naltrexone, reference compound]", "values": [{"measurement": "time at which peak plasma levels occur", "setting": "[1]", "result": "one"}]}, {"smiles": "CCCCCCCCCC(=O)Oc1ccc2c3c1O[C@H]1C(=O)CC[C@@]4(O)[C@@H](C2)N(CC2CC2)CC[C@]314", "note": "[naltrexone decanoate, 17-(cyclopropylmethyl)-4,5-epoxy-14-hydroxy-3-[(1-oxodecyl)oxy]-(5α)-morphinan-6-one]", "values": [{"measurement": "period over which stable", "setting": "[2]", "result": "≤ 60", "unit": "months"}]}]}
